One experiment deals with T1, gastrin (Rattus norvegicus, UniProt P30553).
T1 construct: The stomach was excised and flushed with ca. 1 ml of unbuffered physiological saline solution; from tissue; host or cells: isolated whole stomach of immature rats (33-50 g, ca. 21 days old)
T1 sequence (P30553 1-452): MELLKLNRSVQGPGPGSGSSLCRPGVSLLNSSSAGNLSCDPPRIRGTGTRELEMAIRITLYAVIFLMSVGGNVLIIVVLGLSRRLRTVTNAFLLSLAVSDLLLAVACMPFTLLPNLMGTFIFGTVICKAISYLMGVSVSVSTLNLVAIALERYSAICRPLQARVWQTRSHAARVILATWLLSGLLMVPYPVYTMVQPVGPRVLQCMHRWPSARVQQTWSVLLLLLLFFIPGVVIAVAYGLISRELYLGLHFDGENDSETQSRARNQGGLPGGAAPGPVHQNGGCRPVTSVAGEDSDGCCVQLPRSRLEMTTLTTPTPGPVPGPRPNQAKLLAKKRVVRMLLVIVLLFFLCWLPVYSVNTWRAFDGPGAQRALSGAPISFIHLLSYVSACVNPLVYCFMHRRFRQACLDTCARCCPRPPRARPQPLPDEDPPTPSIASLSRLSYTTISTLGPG
As to the kind of experiment: gastrin antagonist activity in an immature rat stomach assay. As to conditions: isolated immature rat stomach, cumulative pentagastrin dose-response curves, acid secretion; for Kb: read-out: Gastrin pKB (converted). How it is done: The compounds of the examples were also tested for gastrin antagonist activity in an immature rat stomach assay. The procedure was as follows: The oesophagus of immature rats (33-50 g, ca. 21 days old) was ligated at the level of the cardiac sphincter and the duodenal sphincter was cannulated. The stomach was excised and flushed with ca. 1 ml of unbuffered physiological saline solution. The fundus was punctured and cannulated. A further 4-5 ml of unbuffered solution was flushed through the stomach to ensure the preparation was not leaking. […] The stomach was continuously perfused at a rate of 1 ml min^-1 with unbuffered solution gassed with 100% O2 with the perfusate passing over an internally referenced pH-electrode fixed 12 cm above the stomach. After 120 min of stabilisation the drugs were added directly to the serosal solution in the organ bath and after a further 60 min cumulative pentagastrin dose-response curves were started.

For another experiment, the target named is T2, CCKB receptor (Mus musculus, UniProt P56481).
T2 construct: The whole brains from male mice (CD1 22-25g; Charles River) were removed; from tissue; host or cells: cerebral cortex membranes of male CD1 mice
T2 sequence (P56481 1-453): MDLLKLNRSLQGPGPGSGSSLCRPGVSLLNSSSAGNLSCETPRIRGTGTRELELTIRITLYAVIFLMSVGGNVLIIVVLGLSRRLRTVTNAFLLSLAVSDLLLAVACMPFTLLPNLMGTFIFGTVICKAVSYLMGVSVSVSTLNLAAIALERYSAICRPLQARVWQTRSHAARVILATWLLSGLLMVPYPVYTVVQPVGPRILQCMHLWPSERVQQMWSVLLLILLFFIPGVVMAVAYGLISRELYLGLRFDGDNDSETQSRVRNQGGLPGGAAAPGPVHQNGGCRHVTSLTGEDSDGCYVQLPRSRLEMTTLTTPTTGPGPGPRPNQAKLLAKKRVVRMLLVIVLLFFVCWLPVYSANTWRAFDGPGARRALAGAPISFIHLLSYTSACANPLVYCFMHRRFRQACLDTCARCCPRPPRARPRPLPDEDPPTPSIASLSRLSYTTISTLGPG
The experiment can be described thus: radioligand binding assay at the CCKB receptor in mouse cortical membranes. Conditions: [125I]-CCK8S 200pM, 150 min at 21 ± 3°C; for Ki: read-out: CCKB pKi (converted). On the procedure:
The compounds of the examples were tested for binding at the CCKB receptor in mouse cortical membranes by means of a radioligand binding assay. The procedure was as follows:
The whole brains from male mice (CD1 22-25g; Charles River) were removed and placed in ice-cold buffer (pH7.2 @ 21 ± 3°C) of the following composition (mM); 10 HEPES, 130 NaCl, 4.7 KCl, 5 MgCl2, 1 EDTA and containing 0.25g.l^-1 bacitracin. The cortex was dissected, weighed and homogenised in 40ml ice-cold buffer using a Teflon-in-glass homogeniser. The homogenate was centrifuged at 39,800g for 20 min at 4°C, the supernatant discarded and the pellet resuspended by homogenisation in fresh buffer. The homogenate was recentrifuged (39,800g; 20 min @ 4°C) and the final pellet was resuspended in HEPES buffer to give a tissue concentration of 2mg.ml^-1(original wet weight).
The assay was terminated by rapid filtration through pre-soaked Whatman GF/B filters using a Brandell Cell harvester. The filters were washed (3 x 3ml) with ice-cold 50mM Tris-HCl (pH7.4 @ 4°C) and bound radioactivity determined by counting (1 min.) in a gamma-counter.

With `O=C(NCC12CC3CC(CC(C3)C1)C2)C1C2c3ccccc3C(c3ccccc32)C1C(=O)N[C@@H](Cc1ccccc1)C(=O)Nc1ccccc1` (single isomer, unassigned) [Example 23, cis-7-(1S-(phenylaminocarbonyl)-2-phenylethylaminocarbonyl)-8-(1-adamantanemethylaminocarbonyl)-2,3,5,6-dibenzobicyclo[2.2.2]octane], the Kb at gastrin was 251 nM.
On to `O=C(O)c1cc(NC(=O)[C@H](Cc2ccc(O)cc2)NC(=O)C2C3c4ccccc4C(c4ccccc43)C2C(=O)NCC23CC4CC(CC(C4)C2)C3)cc(C(=O)O)c1` (single isomer, unassigned) [Example 24, cis-7-(1S-(3,5-dicarboxyphenylaminocarbonyl) -2-(4-hydroxyphenyl) -ethylaminocarbonyl)-8-(1-adamantanemethylaminocarbonyl) -2,3,5,6-dibenzobicyclo[2.2.2]octane], for which the Ki on CCKB receptor was 1.58 nM. In addition, at gastrin, the Kb is 1.26 nM.
As for `O=C(O)c1cc(NC(=O)[C@H](Cc2ccc(O)cc2)NC(=O)C2C3c4ccccc4C(c4ccccc43)C2C(=O)NCC23CC4CC(CC(C4)C2)C3)cc(C(=O)O)c1` (single isomer, unassigned) [Example 25, cis-7-(1S-(3,5-dicarboxyphenylaminocarbonyl)-2-(4-hydroxyphenyl)ethylaminocarbonyl)-8-(1-adaxantanemethylaminocarbonyl)-2,3,5,6-dibenzobicyclo[2.2.2]octane], the Kb at gastrin is 63.1 nM.
Take `O=C(O)c1cc(NC(=O)[C@@H](Cc2ccc(O)cc2)NC(=O)C2C3c4ccccc4C(c4ccccc43)C2C(=O)NCC23CC4CC(CC(C4)C2)C3)cc(C(=O)O)c1` (single isomer, unassigned) [Example 26, cis-7-(1R-(3,5-dicarboxyphenylaminocarbonyl)-2-(4-hydroxyphenyl)-ethylaminocarbonyl)-8-(1-adamantanemethylaminocarbonyl) -2,3,5,6-dibenzobicyclo [2.2.2]octane]: the Kb at gastrin is 158 nM.
On to `O=C(O)c1cc(NC(=O)[C@@H](Cc2ccc(O)cc2)NC(=O)C2C3c4ccccc4C(c4ccccc43)C2C(=O)NCC23CC4CC(CC(C4)C2)C3)cc(C(=O)O)c1` (single isomer, unassigned) [Example 27, cis-7-(1R-(3,5-dicarboxyphenylaminocarbonyl)-2-(4-hydroxyphenyl)ethylaminocarbonyl)-8-(1-adamantanemethylaminocarbonyl)-2,3,5,6-dibenzobicyclo [2.2.2]octane], for which the Ki on CCKB receptor was 15.8 nM. The Kb on gastrin was 7.94 nM.
For `O=C(O)c1cc(NC(=O)[C@H](Cc2ccccc2)NC(=O)C2C3c4ccccc4C(c4ccccc43)C2C(=O)NCC2CCCCCC2)cc(C(=O)O)c1` (single isomer, unassigned) [Example 28, cis-7-(1S-(3,5-dicarboxyphenylaminocarbonyl) -2-phenylethylaminocarbonyl)-8-(1-cycloheptane-methylaminocarbonyl) -2,3,5,6-dibenzobicyclo[2.2.2]octane] the same measures were 3.98 nM and 3.98 nM.
For `O=C(O)c1cc(NC(=O)[C@H](Cc2ccccc2)NC(=O)C2C3c4ccccc4C(c4ccccc43)C2C(=O)NCC2CCCCCC2)cc(C(=O)O)c1` (single isomer, unassigned) [Example 29, cis-7-(1S-(3,5-dicarboxyphenylaminocarbonyl) -2-phenylethylaminocarbonyl) -8-(cycloheptanemethyl-aminocarbonyl)-2,3,5,6-dibenzobicyclo[2.2.2]octane] the same measures were 39.8 nM and 100 nM.
As for `O=C(O)c1ccc(NC(=O)[C@H](Cc2ccccc2)NC(=O)C2C3c4ccccc4C(c4ccccc43)C2C(=O)NCC23CC4CC(CC(C4)C2)C3)cc1` (single isomer, unassigned) [Example 46, cis-7-(1S-(4-carboxy-phenylaminocarbonyl) -2-phenylethylaminocarbonyl)-8-(1-adamantane-methylaminocarbonyl) -2,3,5,6-dibenzobicyclo[2.2.2]octane], the Ki on CCKB receptor was 158 nM. For the same compound, the Kb at gastrin was 2000 nM.
In the case of `O=C(O)c1ccc(NC(=O)[C@H](Cc2ccccc2)NC(=O)C2C3c4ccccc4C(c4ccccc43)C2C(=O)NCC23CC4CC(CC(C4)C2)C3)cc1` (single isomer, unassigned) [Example 47], the Ki at CCKB receptor is 126 nM.
Turning to `COC(=O)c1cc(NC(=O)[C@H](Cc2ccccc2)NC(=O)C2C3c4ccccc4C(c4ccccc43)C2C(=O)NCC23CC4CC(CC(C4)C2)C3)cc(C(=O)OC)c1` (single isomer, unassigned) [Example 48], the Ki at CCKB receptor is 10000 nM.
On the same count and under the same terms, next, `O=C(O)c1cccc(NC(=O)[C@H](Cc2cccs2)NC(=O)C2C3c4ccccc4C(c4ccccc43)C2C(=O)NCc2cccc3ccccc23)c1` (single isomer, unassigned) [Example 58, cis-7-(1S-(3-carboxyphenylaminocarbonyl)-2-(2-thiophenyl)ethylaminocarbonyl)-8-(1-naphthalenemethylaminocarbonyl)-2,3,5,6-dibenzobicyclo[2.2.2]octane]: 501 nM.
On the same count and under the same terms, next, `O=C(O)c1cccc(NC(=O)[C@H](Cc2ccccc2)NC(=O)C2C3c4ccccc4C(c4ccccc43)C2C(=O)NCc2cccc3ccccc23)c1` (single isomer, unassigned) [Example 60, cis-7-(1S-(3-carboxyphenylaminocarbonyl)-2-phenylethylaminocarbonyl)-8-(1-naphthalenemethylaminocarbonyl)-2,3,5,6-dibenzobicyclo [2.2.2]octane]: 398 nM.
Consider `O=C(NCC12CC3CC(CC(C3)C1)C2)C1C2c3ccccc3C(c3ccccc32)C1C(=O)N[C@@H](Cc1ccccc1)C(=O)Nc1cc(-c2nnn[nH]2)cc(-c2nnn[nH]2)c1` (stereo partly drawn) [Example 44, cis-7-(1S-(3,5-ditetrazolylphenylaminocarbonyl) -2-phenylethylaminocarbonyl) -8-(1-adamantanemethylaminocarbonyl)-2,3,5,6-dibenzobicyclo[2.2.2] octane], for which the “CCKB pKi” value on CCKB receptor turned out to be 6.5. Also, the “Gastrin pKB” value at gastrin (60 min) was 6.9.
Consider “cis-7-(1S-(3-carboxyphenylaminocarbonyl)-2- (2-thiophenyl)ethylaminocarbonyl)-8-(1-naphthalenemethylaminocarbonyl) -2,3,5,6-dibenzobicyclo[2.2.2]octane [Example 57]”, for which the “CCKB pKi” value on CCKB receptor worked out at 7.2.
The same measure, in the same setting: next, “cis-7-(1S-(3-carboxyphenylaminocarbonyl)-2-phenylethylaminocarbonyl)-8-(1-naphthalenemethylaminocarbonyl)-2,3,5,6-dibenzobicyclo[2.2.2]octane [Example 59]”: 7.2.

Source of the values: patent publication EP0719251B1, “BICYCLO (2.2.2) OCTANE DERIVATIVES CHOLECYSTOKININ AND/OR GASTRIN ANTAGONISTS” (JAMES BLACK FOUNDATION LIMITED, priority 1993, dated 1995).
